Measurements taken from PubChem BioAssay AID1963432 (Molecular Pharmacology Branch, DTP, NCI, 2024).

Test system: SYO-1 complex spheroid growth, percent test/control
Experiment: Anticancer human tumor SYO-1 cell line growth inhibition [Asc];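 note: compound exposure lasted 7 days after spheroids grew 3 days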;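 for viability, T/C: 100% = DMSO vehicle control viability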
Settings: for IC50: curve of first compound; for viability, T/C: stronger effect = lower value
Procedure, shortened: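 Concentration series start at each agent's clinical Cmax, or at 10 microM when none is established, and drop in half-log steps; agents are applied alone or together to complex spheroids built with HUVEC and hMSC.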

[1] = second compound 0.0316 µM, first compound 0.0316 µM
[2] = second compound 0.0316 µM, first compound 0.1 µM
[3] = second compound 0.1 µM, first compound 0.0316 µM
[4] = second compound 0.1 µM, first compound 0.1 µM
[5] = second compound 0.316 µM, first compound 0.0316 µM
[6] = second compound 0.316 µM, first compound 0.1 µM
[7] = second compound 1 µM, first compound 0.0316 µM
[8] = second compound 1 µM, first compound 0.1 µM

`C=C(F)C(=O)N1CCN(c2nc(OCC3CCCN3C)nc3c2CCN(c2cccc4cccc(Cl)c24)C3)CC1CC#N` (configuration not stated) + CNC(C)C(=O)NC1CN(S(=O)(=O)c2cccc(S(=O)(=O)N3CCC4CCC(C(=O)NC(c5ccccc5)c5ccccc5)N4C(=O)C(NC(=O)C(C)NC)C3)c2)CCC2CCC(C(=O)NC(c3ccccc3)c3ccccc3)N2C1=O was tested, and the IC50 (second compound 0.01 µM) was 5650 nM, the IC50 (second compound 0.0316 µM) was 5600 nM and the IC50 (second compound 0.1 µM) was 5580 nM. It also gave an IC50 (second compound 0.316 µM) of 5460 nM, an IC50 (second compound 1 µM) of 5360 nM and a viability, T/C (second compound 0.01 µM, first compound 0.0316 µM) of 99.1%. For the same molecule, the viability, T/C (second compound 0.01 µM, first compound 0.1 µM) was 113%, the viability, T/C (second compound 0.01 µM, first compound 0.316 µM) was 104% and the viability, T/C (second compound 0.01 µM, first compound 1 µM) was 99.7%. It also gave a viability, T/C (second compound 0.01 µM, first compound 3.16 µM) of 101%, a viability, T/C (second compound 0.01 µM, first compound 10 µM) of 0.23% and a viability, T/C [1] of 96.7%. For the same molecule, the viability, T/C [2] was 103%, the viability, T/C (second compound 0.0316 µM, first compound 0.316 µM) was 101% and the viability, T/C (second compound 0.0316 µM, first compound 1 µM) was 98.3%. The viability, T/C (second compound 0.0316 µM, first compound 3.16 µM) was 99%, the viability, T/C (second compound 0.0316 µM, first compound 10 µM) was 0.22% and the viability, T/C [3] was 100%. For the same molecule, the viability, T/C [4] was 105%, the viability, T/C (second compound 0.1 µM, first compound 0.316 µM) was 95% and the viability, T/C (second compound 0.1 µM, first compound 1 µM) was 97.2%. The viability, T/C (second compound 0.1 µM, first compound 3.16 µM) was 98.6%, the viability, T/C (second compound 0.1 µM, first compound 10 µM) was 0.21% and the viability, T/C [5] was 98.5%. It also gave a viability, T/C [6] of 103%, a viability, T/C (second compound 0.316 µM, first compound 0.316 µM) of 103% and a viability, T/C (second compound 0.316 µM, first compound 1 µM) of 88.7%. The viability, T/C (second compound 0.316 µM, first compound 3.16 µM) was 95%, the viability, T/C (second compound 0.316 µM, first compound 10 µM) was 0.23% and the viability, T/C [7] was 104%. The viability, T/C [8] was 104%, the viability, T/C (second compound 1 µM, first compound 0.316 µM) was 101% and the viability, T/C (second compound 1 µM, first compound 1 µM) was 94.2%. It also gave a viability, T/C (second compound 1 µM, first compound 3.16 µM) of 92.3% and a viability, T/C (second compound 1 µM, first compound 10 µM) of 0.26%.

In the case of `Cn1ncnc1[C@H]1c2n[nH]c(=O)c3cc(F)cc(c23)N[C@@H]1c1ccc(F)cc1` + Cc1c(S(C)(=O)=O)c(-c2cc(F)cc(N3CCN(c4ccc(NS(=O)(=O)c5ccc(NC(CCN6CCC(C(=O)OCCCP(=O)(O)O)CC6)CSc6ccccc6)c(S(=O)(=O)C(F)(F)F)c5)cc4)CC3)c2)c(-c2ccc(Cl)cc2)n1C(C)C, the IC50 (second compound 0.0316 µM) is reported as 19.3 nM, the IC50 (second compound 0.1 µM) is reported as 18.1 nM and the IC50 (second compound 0.316 µM) is reported as 15.3 nM. For the same molecule, the IC50 (second compound 1 µM) was 10.2 nM, the IC50 (second compound 3.16 µM) was 5.98 nM and the IC50 (second compound 10 µM) was 4.59 nM. For the same molecule, the viability, T/C (second compound 0.0316 µM, first compound 0.000316 µM) was 108%, the viability, T/C (second compound 0.0316 µM, first compound 0.001 µM) was 96.5% and the viability, T/C (second compound 0.0316 µM, first compound 0.00316 µM) was 99.6%. For the same molecule, the viability, T/C (second compound 0.0316 µM, first compound 0.01 µM) was 80%, the viability, T/C [1] was 27.4% and the viability, T/C [2] was 6.64%. The viability, T/C (second compound 0.1 µM, first compound 0.000316 µM) was 97.6%, the viability, T/C (second compound 0.1 µM, first compound 0.001 µM) was 99% and the viability, T/C (second compound 0.1 µM, first compound 0.00316 µM) was 87.1%. For the same molecule, the viability, T/C (second compound 0.1 µM, first compound 0.01 µM) was 85.2%, the viability, T/C [3] was 17.2% and the viability, T/C [4] was 4.83%. It also gave a viability, T/C (second compound 0.316 µM, first compound 0.000316 µM) of 97.1%, a viability, T/C (second compound 0.316 µM, first compound 0.001 µM) of 95.4% and a viability, T/C (second compound 0.316 µM, first compound 0.00316 µM) of 94.5%. The viability, T/C (second compound 0.316 µM, first compound 0.01 µM) was 73.6%, the viability, T/C [5] was 9.3% and the viability, T/C [6] was 3.79%. It also gave a viability, T/C (second compound 1 µM, first compound 0.000316 µM) of 93.4%, a viability, T/C (second compound 1 µM, first compound 0.001 µM) of 98.6% and a viability, T/C (second compound 1 µM, first compound 0.00316 µM) of 88.6%. The viability, T/C (second compound 1 µM, first compound 0.01 µM) was 51.5%, the viability, T/C [7] was 7.18% and the viability, T/C [8] was 3.35%. For the same molecule, the viability, T/C (second compound 3.16 µM, first compound 0.000316 µM) was 97.2%, the viability, T/C (second compound 3.16 µM, first compound 0.001 µM) was 89.5% and the viability, T/C (second compound 3.16 µM, first compound 0.00316 µM) was 80.1%. The viability, T/C (second compound 3.16 µM, first compound 0.01 µM) was 26%, the viability, T/C (second compound 3.16 µM, first compound 0.0316 µM) was 4.8% and the viability, T/C (second compound 3.16 µM, first compound 0.1 µM) was 2.64%. For the same molecule, the viability, T/C (second compound 10 µM, first compound 0.000316 µM) was 85.9%, the viability, T/C (second compound 10 µM, first compound 0.001 µM) was 90% and the viability, T/C (second compound 10 µM, first compound 0.00316 µM) was 65.6%. For the same molecule, the viability, T/C (second compound 10 µM, first compound 0.01 µM) was 16.4%, the viability, T/C (second compound 10 µM, first compound 0.0316 µM) was 3.2% and the viability, T/C (second compound 10 µM, first compound 0.1 µM) was 2.36%.
